Holding throughout (assay type): functional, cell-based
Test [1] deals with T1, Taste receptor type 2 member 46 (Homo sapiens) (UniProt P59540).
T1 sequence (whole entry): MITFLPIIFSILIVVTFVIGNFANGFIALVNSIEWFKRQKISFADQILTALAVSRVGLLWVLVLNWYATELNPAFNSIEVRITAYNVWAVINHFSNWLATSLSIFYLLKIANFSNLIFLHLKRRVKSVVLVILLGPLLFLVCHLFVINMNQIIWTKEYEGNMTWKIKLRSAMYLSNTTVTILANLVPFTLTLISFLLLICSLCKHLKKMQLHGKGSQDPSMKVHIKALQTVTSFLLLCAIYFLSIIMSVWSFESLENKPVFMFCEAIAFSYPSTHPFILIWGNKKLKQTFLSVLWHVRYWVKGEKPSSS
The experiment in a line: Activation of full-length human TAS2R46 expressed in HEK293T/Galpha16-gustducin 44 cells assessed as effect on calcium flux by measuring deltaF/F0 ratio by Fluo-4 dye based FLIPR assay.

Test [2] deals with T2, Taste receptor type 2 member 1 (Homo sapiens, UniProt Q9NYW7).
T2 sequence (Q9NYW7 whole entry): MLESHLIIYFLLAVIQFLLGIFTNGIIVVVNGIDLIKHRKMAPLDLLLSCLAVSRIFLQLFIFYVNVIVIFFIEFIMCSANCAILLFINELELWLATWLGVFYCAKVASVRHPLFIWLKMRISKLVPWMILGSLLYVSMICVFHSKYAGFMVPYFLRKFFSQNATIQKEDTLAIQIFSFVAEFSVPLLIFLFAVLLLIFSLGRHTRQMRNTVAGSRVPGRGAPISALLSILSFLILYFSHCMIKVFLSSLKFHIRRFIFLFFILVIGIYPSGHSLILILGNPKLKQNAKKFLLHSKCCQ
As to the kind of experiment: (§1) Activation of full-length human TAS2R1 expressed in HEK293T/Galpha16-gustducin 44 cells assessed as effect on calcium flux by measuring deltaF/F0 ratio by Fluo-4 dye based FLIPR assay. (Calcium flux is commonly read through the fluorescence of an indicator in the cells.)

Test [3] deals with T3, Taste receptor type 2 member 1 (Homo sapiens) (UniProt Q9NYW7).
T3 sequence (whole entry): T2 sequence (Q9NYW7 whole entry)
Described as §1.

For test [4], the target named is T4, Taste receptor type 2 member 10 (Homo sapiens) (UniProt Q9NYW0).
T4 sequence (whole entry): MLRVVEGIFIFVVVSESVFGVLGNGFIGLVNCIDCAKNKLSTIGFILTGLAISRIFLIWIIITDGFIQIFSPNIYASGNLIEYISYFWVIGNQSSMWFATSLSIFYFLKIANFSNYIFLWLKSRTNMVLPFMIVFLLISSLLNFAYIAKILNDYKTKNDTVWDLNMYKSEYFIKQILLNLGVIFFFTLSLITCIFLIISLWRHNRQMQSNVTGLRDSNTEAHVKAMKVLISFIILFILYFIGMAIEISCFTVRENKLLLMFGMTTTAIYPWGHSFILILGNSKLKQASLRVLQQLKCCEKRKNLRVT
The experiment in a line: Activation of full-length human TAS2R10 expressed in HEK293T/Galpha16-gustducin 44 cells assessed as effect on calcium flux by measuring deltaF/F0 ratio at 6.25 mM by Fluo-4 dye based FLIPR assay.

Test [5] has as its target T1, Taste receptor type 2 member 46 (Homo sapiens). As to the kind of experiment: Activation of full-length human TAS2R46 expressed in HEK293T/Galpha16-gustducin 44 cells assessed as effect on calcium flux by measuring deltaF/F0 ratio at 3.125 mM by Fluo-4 dye based FLIPR assay.
For test [6], the target named is T3, Taste receptor type 2 member 1 (Homo sapiens). As to the kind of experiment: Activation of full-length human TAS2R1 expressed in HEK293T/Galpha16-gustducin 44 cells assessed as effect on calcium flux by measuring deltaF/F0 ratio at 0.7813 mM by Fluo-4 dye based FLIPR assay.
Test [7] has as its target T5, Taste receptor type 2 member 31 (Homo sapiens) (UniProt P59538).
T5 sequence (whole entry): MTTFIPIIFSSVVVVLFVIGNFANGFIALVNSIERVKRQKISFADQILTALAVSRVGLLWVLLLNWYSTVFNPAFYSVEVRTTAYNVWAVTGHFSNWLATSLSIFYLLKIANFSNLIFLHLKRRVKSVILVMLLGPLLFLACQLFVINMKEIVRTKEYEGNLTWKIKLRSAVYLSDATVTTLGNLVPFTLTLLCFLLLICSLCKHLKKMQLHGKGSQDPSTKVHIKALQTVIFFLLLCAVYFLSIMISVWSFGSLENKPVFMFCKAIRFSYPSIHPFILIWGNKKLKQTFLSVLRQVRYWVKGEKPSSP
The experiment in a line: Activation of full-length human TAS2R44 expressed in HEK293T/Galpha16-gustducin 44 cells assessed as effect on calcium flux by measuring deltaF/F0 ratio at 6.25 mM by Fluo-4 dye based FLIPR assay (reference value: 0.017 +/ - 0.009).

Test [8] deals with T4, Taste receptor type 2 member 10 (Homo sapiens). As to the kind of experiment: Activation of full-length human TAS2R10 expressed in HEK293T/Galpha16-gustducin 44 cells assessed as effect on calcium flux by measuring deltaF/F0 ratio at 0.3906 mM by Fluo-4 dye based FLIPR assay.
For test [9] the target is unchanged. As to the kind of experiment: Activation of full-length human TAS2R10 expressed in HEK293T/Galpha16-gustducin 44 cells assessed as effect on calcium flux by measuring deltaF/F0 ratio at 0.7813 mM by Fluo-4 dye based FLIPR assay.
Test [10] addresses T1, Taste receptor type 2 member 46 (Homo sapiens). As to the kind of experiment: Activation of full-length human TAS2R46 expressed in HEK293T/Galpha16-gustducin 44 cells assessed as effect on calcium flux by measuring deltaF/F0 ratio at 100 mM by Fluo-4 dye based FLIPR assay.
Test [11] has as its target T5, Taste receptor type 2 member 31 (Homo sapiens). As to the kind of experiment: Activation of full-length human TAS2R44 expressed in HEK293T/Galpha16-gustducin 44 cells assessed as effect on calcium flux by measuring deltaF/F0 ratio at 0.3906 mM by Fluo-4 dye based FLIPR assay (reference value: […] +/ - 0.002).
In test [12] the target is T1, Taste receptor type 2 member 46 (Homo sapiens). As to the kind of experiment: Activation of full-length human TAS2R46 expressed in HEK293T/Galpha16-gustducin 44 cells assessed as effect on calcium flux by measuring deltaF/F0 ratio at 6.25 mM by Fluo-4 dye based FLIPR assay.
Test [13] concerns the target T4, Taste receptor type 2 member 10 (Homo sapiens). The experiment in a line: Activation of full-length human TAS2R10 expressed in HEK293T/Galpha16-gustducin 44 cells assessed as effect on calcium flux by measuring deltaF/F0 ratio at 50 mM by Fluo-4 dye based FLIPR assay.
For test [14], the target named is T1, Taste receptor type 2 member 46 (Homo sapiens). As to the kind of experiment: Activation of full-length human TAS2R46 expressed in HEK293T/Galpha16-gustducin 44 cells assessed as effect on calcium flux by measuring deltaF/F0 ratio at 1.5625 mM by Fluo-4 dye based FLIPR assay.
The target is the same in test [15]. The experiment in a line: Activation of full-length human TAS2R46 expressed in HEK293T/Galpha16-gustducin 44 cells assessed as effect on calcium flux by measuring deltaF/F0 ratio at 12.5 mM by Fluo-4 dye based FLIPR assay.
The target of test [16] is T5, Taste receptor type 2 member 31 (Homo sapiens). The experiment in a line: Activation of full-length human TAS2R44 expressed in HEK293T/Galpha16-gustducin 44 cells assessed as effect on calcium flux by measuring deltaF/F0 ratio at 50 mM by Fluo-4 dye based FLIPR assay (reference value: […] +/ - 0.016).
The target is the same in test [17]. As to the kind of experiment: Activation of full-length human TAS2R44 expressed in HEK293T/Galpha16-gustducin 44 cells assessed as effect on calcium flux by measuring deltaF/F0 ratio at 3.125 mM by Fluo-4 dye based FLIPR assay (reference value: […] +/ - 0.001).

Broadly, the EC50 is the concentration at which the effect is half-maximal.

`OC[C@H]1O[C@H](O[C@]2(CCl)O[C@H](CCl)[C@@H](O)[C@@H]2O)[C@H](O)[C@@H](O)[C@H]1Cl` [SUCRALOSE]: the Activity result in [1] and in [3] was “Dose-dependent effect” in each case. In addition, the concentration giving a half-maximal response (EC50) in [2] came out at 36.3 mM. Besides, the Ratio in test [4] was 0.053; in test [5] it was 0.036; in [6], 0.05; in test [7] it was 0.059; in test [8], 0.05; in [9], 0.05. The Ratio in [10] amounted to 0.258; in test [11], 0.023; in test [12] it was 0.057; in [13] it was 0.212; in test [14], 0.035; in test [15], 0.075. Moreover, the Ratio in [16] came out at 0.256; in test [17], 0.043.

Values taken from ChEMBL document CHEMBL4417621, “Methods to identify tas2r modulators” (2013).
